We go through 42 compounds from patent publication US12116358B2, “Substituted indoles and methods of use thereof” (EPIZYME, INC., priority 2018, dated 2024).

One test has as its system H3K36me3 in A549 cells. Description: In-Cell Western (ICW) assay of SETD2 inhibitors (A549 assay). Format: cell-based, human. As to conditions: A549 cells, read-out: SETD2 A549. The procedure, abridged:
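H3K36me3 In-Cell Western: cells exposed to compound for 3 days at 4,000 cells/well, 37° C. DRAQ5 (1:1000) marked cell number, with 700/800-channel Licor read-out.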

The target in a further test is T1, SETD2(1434-1711) (Homo sapiens, UniProt Q9BYW2).
T1 construct: SETD2 (1434-1711) Assay; catalogue N/A
T1 sequence (Q9BYW2 1434-1711): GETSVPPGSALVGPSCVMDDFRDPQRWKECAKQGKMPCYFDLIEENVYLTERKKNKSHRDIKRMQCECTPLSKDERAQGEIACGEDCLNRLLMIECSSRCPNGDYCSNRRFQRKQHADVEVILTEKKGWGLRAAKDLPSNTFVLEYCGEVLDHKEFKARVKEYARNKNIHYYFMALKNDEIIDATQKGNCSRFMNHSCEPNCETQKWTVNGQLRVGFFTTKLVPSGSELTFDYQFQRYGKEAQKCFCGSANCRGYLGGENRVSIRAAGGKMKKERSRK
The experiment in a line: SETD2 (1434-1711) assay. Format: biochemical. The conditions noted are these: read-out: SETD2 (1434-1711).

Read-outs that look alike come from different tables or passages of the source. Some results are limits rather than exact numbers.

In the case of `COC(=O)CC(NC(=O)c1cc2cccc(C)c2[nH]1)c1ccc(Br)cc1` (stereo not drawn) [compound 525], the IC50 was 20.9 µM in the test with H3K36me3 in A549 cells and 12.6 µM at SETD2(1434-1711).

Consider `Cc1cccc2cc(C(=O)Nc3ccc4ccccc4c3)[nH]c12` [compound 526], for which the IC50 in the test with H3K36me3 in A549 cells (Homo sapiens) came to 22.6 µM; on SETD2(1434-1711) it was 1.9 µM.

In the case of `COC(=O)CC(NC(=O)c1cc2cccc(C)c2[nH]1)c1ccc(C#N)cc1` (stereo not drawn) [compound 527], the IC50 in the test on H3K36me3 in A549 cells was determined as 24.2 µM; at SETD2(1434-1711), 14.7 µM.

Consider `Cc1cc(C(=O)NC2CCN(C)CC2)c(C)nc1C(NC(=O)c1cc2cccc(C)c2[nH]1)C1CC1` (stereo not drawn) [compound 529], for which the values for the IC50 in the test with H3K36me3 in A549 cells and at SETD2(1434-1711) were 24.9 µM and 8.6 µM, respectively.

As to `Cc1ccc(F)c2cc(C(=O)Nc3cccc(N4CCC(N5CCC(N)CC5)CC4)c3)[nH]c12` [compound 530], the IC50 in the test with H3K36me3 in A549 cells is above 25 µM; on SETD2(1434-1711), 0.007 µM.

With `Cc1cccc2cc(C(=O)Nc3cccc(N4CCC(NCCN)CC4)n3)[nH]c12` [compound 531], the IC50 was above 25 µM in the test with H3K36me3 in A549 cells (Homo sapiens) and 0.2 µM at SETD2(1434-1711).

On to `Cc1ccc(F)c2cc(C(=O)Nc3cccc(-c4n[nH]c(=O)[nH]4)c3)[nH]c12` [compound 532], for which the IC50 in the test on H3K36me3 in A549 cells is above 25 µM; at SETD2(1434-1711) it was 0.2 µM.

Regarding `Cc1cccc2cc(C(=O)Nc3ccc4ncncc4c3)[nH]c12` [compound 533], the IC50 is above 25 µM with H3K36me3 in A549 cells and 0.4 µM at SETD2(1434-1711).

Regarding `Cc1cc(C(=O)NC2CNC2)cnc1C(NC(=O)c1cc2cccc(C)c2[nH]1)C1CC1` (stereo not drawn) [compound 535], the IC50 was above 25 µM in the test with H3K36me3 in A549 cells and 0.6 µM at SETD2(1434-1711).

As for `Cc1ccc(F)c2cc(C(=O)Nc3ccc4ncc(CN(C)C)n4c3)[nH]c12` [compound 536], the results for the IC50 with H3K36me3 in A549 cells and at SETD2(1434-1711) were above 25 µM and 0.8 µM, respectively.

For the compound `CCN(CC)C1CCc2cc(NC(=O)c3cc4cccc(C)c4[nH]3)ccc2C1` (stereo not drawn) [compound 537], the IC50 with H3K36me3 in A549 cells (Homo sapiens) is above 25 µM; at SETD2(1434-1711) it was 0.9 µM.

Consider `Cc1cccc2cc(C(=O)Nc3ccc4nc[nH]c(=O)c4c3)[nH]c12` [compound 538], for which the results for the IC50 in the test with H3K36me3 in A549 cells (Homo sapiens) and at SETD2(1434-1711) were above 25 µM and 1 µM, respectively.

Consider `Cc1ccc(F)c2cc(C(=O)Nc3cccc(N4CCN(C)CC4c4ccccc4)c3)[nH]c12` (stereo not drawn) [compound 539], for which the IC50 is above 25 µM in the test with H3K36me3 in A549 cells and 1.6 µM on SETD2(1434-1711).

On to `Cc1ccc(F)c2cc(C(=O)NCCc3ccccc3N3CCN(C)CC3)[nH]c12` [compound 540], for which the figures for the IC50 in the test with H3K36me3 in A549 cells (Homo sapiens) and on SETD2(1434-1711) were above 25 µM and 1.7 µM, respectively.

Turning to `Cc1cccc2cc(C(=O)Nc3ccc4nc(CN5CCNCC5)ncc4c3)[nH]c12` [compound 541], the IC50 in the test on H3K36me3 in A549 cells is above 25 µM; at SETD2(1434-1711), 2 µM.

`Cc1cc(CC(=O)O)cnc1C(NC(=O)c1cc2c(F)ccc(C)c2[nH]1)C1CC1` (stereo not drawn) [compound 542]: the IC50 was above 25 µM in the test on H3K36me3 in A549 cells (Homo sapiens) and 2.4 µM on SETD2(1434-1711).

For `Cc1cccc2cc(C(=O)NC3CCN(C(=O)CCCN)CC3C)[nH]c12` (stereo not drawn) [compound 543], the IC50 with H3K36me3 in A549 cells is above 25 µM; on SETD2(1434-1711) it was 2.6 µM.

For the compound `Cc1cc(C(=O)O)cnc1C(NC(=O)c1cc2c(F)ccc(C)c2[nH]1)C1CC1` (stereo not drawn) [compound 544], the IC50 in the test on H3K36me3 in A549 cells was above 25 µM; at SETD2(1434-1711), 2.9 µM.

In the case of `Cc1ccc(F)c2cc(C(=O)Nc3cccc(-c4noc(=O)[nH]4)c3)[nH]c12` [compound 545], the IC50 in the test on H3K36me3 in A549 cells was above 25 µM; at SETD2(1434-1711) it was 3.1 µM.

On to `Cc1cccc2cc(C(=O)Nc3ccc4nc(CN(C)C)cn4c3)[nH]c12` [compound 546], for which the IC50 with H3K36me3 in A549 cells (Homo sapiens) was above 25 µM; at SETD2(1434-1711) it was 3.9 µM.

With `Cc1ccc(F)c2cc(C(=O)Nc3cccc(N4CCOc5ccccc54)c3)[nH]c12` [compound 547], the IC50 is above 25 µM in the test on H3K36me3 in A549 cells and 4 µM at SETD2(1434-1711).

Consider `Cc1ccc(F)c2cc(C(=O)Nc3ccn(C4CCN(C)CC4)n3)[nH]c12` [compound 548], for which the values for the IC50 with H3K36me3 in A549 cells and at SETD2(1434-1711) were above 25 µM and 5.1 µM, respectively.

As to `Cc1cccc2cc(C(=O)NCCc3ccccc3N3CCC(CCN(C)C)CC3)[nH]c12` [compound 549], the figures for the IC50 with H3K36me3 in A549 cells and at SETD2(1434-1711) were above 25 µM and 5.8 µM, respectively.

As to `Cc1ccc(F)c2cc(C(=O)NC(C(=O)NCc3ccccc3)c3ccccn3)[nH]c12` (stereo not drawn) [compound 550], the IC50 in the test on H3K36me3 in A549 cells was above 25 µM; on SETD2(1434-1711) it was 6.5 µM.

As for `Cc1cc2ncc(CN(C)C)n2cc1NC(=O)c1cc2cccc(C)c2[nH]1` [compound 551], the IC50 is above 25 µM with H3K36me3 in A549 cells and 6.7 µM at SETD2(1434-1711).

`Cc1cccc2cc(C(=O)NC3CC4CCC(C3)N4C(=O)CCCN)[nH]c12` (stereo not drawn) [compound 552]: the IC50 is above 25 µM in the test on H3K36me3 in A549 cells and 7.7 µM on SETD2(1434-1711).

Consider `NCCC(=O)NC1CCC(NC(=O)c2cc3cccc(Br)c3[nH]2)CC1` (stereo not drawn) [compound 553], for which the values for the IC50 in the test on H3K36me3 in A549 cells and at SETD2(1434-1711) were above 25 µM and 8.3 µM, respectively.

`Cc1cccc2cc(C(=O)NCc3ccccc3N3CCN(C)CC3)[nH]c12` [compound 554]: the IC50 in the test on H3K36me3 in A549 cells is above 25 µM; on SETD2(1434-1711) it was 8.7 µM.

Regarding `Cc1ccc(F)c2cc(C(=O)Nc3cccc(N4CCN(C5CC5)c5ccccc54)c3)[nH]c12` [compound 555], the IC50 in the test on H3K36me3 in A549 cells was above 25 µM; on SETD2(1434-1711), 9.2 µM.

For the compound `COC(=O)CC(NC(=O)c1cc2cccc(C)c2[nH]1)c1ccccc1F` (stereo not drawn) [compound 556], the IC50 is above 25 µM in the test with H3K36me3 in A549 cells and 9.9 µM at SETD2(1434-1711).

Take `Cc1ccc(F)c2cc(C(=O)Nc3nnc(C4CCN(C)CC4)o3)[nH]c12` [compound 557]: the IC50 was above 25 µM in the test with H3K36me3 in A549 cells (Homo sapiens) and above 10 µM on SETD2(1434-1711).

On to `Cc1ccc(F)c2cc(C(=O)Nc3cc(C4CCN(C)CC4)n[nH]3)[nH]c12` [compound 558], for which the IC50 in the test with H3K36me3 in A549 cells is above 25 µM; on SETD2(1434-1711), above 10 µM.

Turning to `Cc1ccc(F)c2cc(C(=O)Nc3nnc(C4CCN(C)CC4)[nH]3)[nH]c12` [compound 559], the IC50 is above 25 µM in the test with H3K36me3 in A549 cells (Homo sapiens) and above 10 µM at SETD2(1434-1711).

Consider `Cc1ccc(F)c2cc(C(=O)NC(C(=O)N3CCOCC3)c3ccccn3)[nH]c12` (stereo not drawn) [compound 560], for which the IC50 is above 25 µM in the test on H3K36me3 in A549 cells (Homo sapiens) and above 10 µM at SETD2(1434-1711).

With `Cc1ccc(F)c2cc(C(=O)Nc3cn(C4CCN(C)CC4)cn3)[nH]c12` [compound 561], the values for the IC50 in the test on H3K36me3 in A549 cells (Homo sapiens) and at SETD2(1434-1711) were above 25 µM and above 10 µM, respectively.

On to `Cc1ccc(F)c2cc(C(=O)Nc3cnc(C4CCN(C)CC4)[nH]3)[nH]c12` [compound 562], for which the IC50 in the test on H3K36me3 in A549 cells (Homo sapiens) is above 25 µM; on SETD2(1434-1711), above 10 µM.

`Cc1cccnc1C(NC(=O)c1cc2cccc(C)c2[nH]1)C1CCCC1` (stereo not drawn) [compound 563]: the figures for the IC50 in the test with H3K36me3 in A549 cells (Homo sapiens) and at SETD2(1434-1711) were above 25 µM and 10.1 µM, respectively.

For the compound `Cc1cccc2cc(C(=O)NC(c3cccc4c3NC(=O)C4)C3CC3)[nH]c12` (stereo not drawn) [compound 564], the IC50 is above 25 µM in the test with H3K36me3 in A549 cells (Homo sapiens) and 10.9 µM at SETD2(1434-1711).

Regarding `Cc1ccc(F)c2cc(C(=O)Nc3cnn(C4CCC(N(C)C)CC4)c3)[nH]c12` (stereo not drawn) [compound 565], the IC50 was above 25 µM in the test with H3K36me3 in A549 cells (Homo sapiens) and 11.6 µM on SETD2(1434-1711).

For the compound `Cc1cccc2cc(C(=O)NCCc3ccccc3N3CCOC(CN(C)C)C3)[nH]c12` (stereo not drawn) [compound 566], the IC50 with H3K36me3 in A549 cells (Homo sapiens) was above 25 µM; on SETD2(1434-1711), 12.9 µM.

Turning to `Cc1cccnc1C(CCCN1CCNCC1)NC(=O)c1cc2cccc(C)c2[nH]1` (stereo not drawn) [compound 567], the IC50 is above 25 µM with H3K36me3 in A549 cells (Homo sapiens) and 13.6 µM at SETD2(1434-1711).

As to `Cc1cccnc1C(NC(=O)c1cc2cccc(C)c2[nH]1)C(C)(C)C` (stereo not drawn) [compound 568], the IC50 was above 25 µM in the test with H3K36me3 in A549 cells (Homo sapiens) and 13.9 µM at SETD2(1434-1711).
